The supplement of paper PMC10307832

Legend:
Test in all cases: relative viability (nuclei count vs DMSO), 5 days (fraction); higher = more cells survive
[1] = compound: O=c1ncccn1[C@@H]1O[C@H](CO)[C@@H](O)[C@H]1O [Zebularine] + CC(=O)c1c(C)c2cnc(Nc3ccc(N4CCNCC4)cn3)nc2n(C2CCCC2)c1=O [Palbociclib] (partner 0.5 µM)
Summary of the method: (§1)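 Nuclei were stained with Hoechst during a one-step fixation (final 0.05% Triton X-100, 1% formaldehyde, 1 ug/ml Hoechst) carried out 5 days after dosing, then counted on 4× images. The cells, lung cancer lines in 1536-well plates, had been dosed by pin tool the day after seeding with one drug alone or a fixed anchor-drug dose plus five library-drug doses (not always all listed) in √10 steps. Relative viability is the nuclei count in treated wells divided by that in vehicle wells, and each value is the median of duplicate plates.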

[2] = compound: O=c1ncccn1[C@@H]1O[C@H](CO)[C@@H](O)[C@H]1O [Zebularine] + NC(=O)Nc1cc(-c2cccc(F)c2)sc1C(=O)N[C@H]1CCCNC1 [AZD7762] (partner 0.2 µM)
Summary of the method: as §1

[3] = compound: CC(C)CCN1c2nc(Nc3cc(F)c(O)c(F)c3)ncc2N(C)C(=O)C1C [BI-D1870] + Cc1nc(NC(=O)N2CCC[C@H]2C(N)=O)sc1-c1ccnc(C(C)(C)C(F)(F)F)c1 [Alpelisib] (partner 2 µM)
Summary of the method: as §1

[4] = compound: O=c1ncccn1[C@@H]1O[C@H](CO)[C@@H](O)[C@H]1O [Zebularine] + CC(C)C[C@H](NC(=O)[C@H](Cc1ccccc1)NC(=O)c1cnccn1)B(O)O [Bortezomib] (partner 0.002 µM)
Summary of the method: as §1

Cell Line	relative viability ([1]; first compound 1 µM)	relative viability ([1]; first compound 3.162 µM)	relative viability ([1]; first compound 10 µM)	relative viability ([1]; first compound 31.62 µM)	relative viability ([1]; first compound 100 µM)	relative viability ([2]; first compound 1 µM)	relative viability ([2]; first compound 3.162 µM)	relative viability ([2]; first compound 10 µM)	relative viability ([2]; first compound 31.62 µM)	relative viability ([2]; first compound 100 µM)	relative viability ([3]; first compound 0.04 µM)	relative viability ([3]; first compound 0.1265 µM)	relative viability ([3]; first compound 0.4 µM)	relative viability ([3]; first compound 1.265 µM)	relative viability ([3]; first compound 4 µM)	relative viability ([4]; first compound 1 µM)	relative viability ([4]; first compound 3.162 µM)	relative viability ([4]; first compound 10 µM)	relative viability ([4]; first compound 31.62 µM)	relative viability ([4]; first compound 100 µM)
LU99A	0.483	0.433	0.331	0.278	0.187	0.348	0.28	0.267	0.24	0.115	0.621	0.492	0.482	0.565	0.489	1.39	1.08	0.638	0.421	0.199
ABC-1	0.741	0.485	0.635	0.589	0.471	0.816	–	0.554	0.538	0.54	1.18	0.972	1.12	1.19	0.829	0.295	0.248	0.249	0.275	0.349
NCI-H2347	0.471	0.411	0.414	0.471	0.338	0.858	0.788	0.609	0.462	0.305	1.07	0.984	0.816	1.14	0.848	0.768	0.925	0.594	0.582	0.542
NCI-H1993	0.726	0.704	0.615	0.633	0.695	0.76	0.881	0.625	0.671	0.493	0.619	0.677	0.643	0.708	0.811	1.26	1.1	–	1.14	0.778
NCI-H322M	0.467	0.486	0.471	0.463	0.496	0.555	0.606	0.572	0.522	0.528	0.887	0.79	0.741	0.891	0.765	1.19	1.29	1.06	1.17	0.824
NCI-H838	0.222	0.257	0.223	0.238	0.219	0.934	0.977	0.764	0.861	0.738	1.04	0.883	0.923	1.17	1.04	0.994	0.727	0.598	0.801	0.298
HARA	0.242	0.279	–	0.292	0.235	0.417	0.31	0.303	0.371	0.336	0.981	0.75	0.842	1.02	0.747	1.14	1.11	–	1.09	0.86
NCI-H2087	0.275	0.207	0.243	0.218	0.185	1.55	1.38	0.735	0.794	0.465	1.15	1.05	1.09	1.23	0.877	0.977	0.747	0.512	0.662	0.321
NCI-H1437	0.308	0.33	0.308	0.453	0.329	1.16	1.21	0.947	1.16	0.914	1.1	0.964	0.911	0.993	0.754	0.595	0.474	–	0.566	0.258
NCI-H1792	0.639	0.732	0.282	0.401	0.423	0.758	0.525	0.332	0.324	0.215	0.724	0.677	0.641	0.736	0.538	0.989	0.932	0.369	0.382	0.359
NCI-H650	0.358	0.376	0.296	0.263	0.195	1.03	1.04	0.908	0.551	0.317	1.16	0.944	1.14	0.97	0.722	0.956	0.654	0.557	0.525	0.357
201T	0.406	0.355	0.325	0.411	0.39	0.674	0.594	0.426	0.691	0.607	1	0.935	0.976	1	0.951	1.13	1.1	1	1.15	1.11
HCC-44	0.945	0.998	1.07	1.16	0.5	1.11	1.03	1.15	1.14	1.01	0.911	0.817	0.846	0.695	0.595	0.95	0.868	0.483	0.827	0.251
H3255	0.3	0.288	0.336	0.314	0.321	1.08	0.909	0.744	0.995	0.904	0.702	0.658	0.722	0.894	0.742	0.897	0.736	0.419	0.775	0.942
NCI-H647	0.334	0.34	0.149	0.0894	0.104	0.814	0.445	0.256	0.259	0.211	1.1	0.985	1.16	1.07	0.896	1.27	0.749	0.181	0.175	0.204
NCI-H23	0.482	0.473	–	0.576	0.411	0.3	0.375	–	0.23	0.254	0.779	0.508	0.614	0.78	0.664	1.15	1.06	–	0.918	0.783
NCI-H460	0.201	0.136	0.161	0.117	0.0697	0.781	0.716	0.294	0.434	0.126	0.613	0.368	0.443	0.347	0.0382	1.34	1.07	0.241	0.278	0.126

Cell Line	relative viability ([1]; first compound 1 µM)	relative viability ([1]; first compound 3.162 µM)	relative viability ([1]; first compound 10 µM)	relative viability ([1]; first compound 31.62 µM)	relative viability ([1]; first compound 100 µM)	relative viability ([2]; first compound 1 µM)	relative viability ([2]; first compound 3.162 µM)	relative viability ([2]; first compound 10 µM)	relative viability ([2]; first compound 31.62 µM)	relative viability ([2]; first compound 100 µM)	relative viability ([3]; first compound 0.04 µM)	relative viability ([3]; first compound 0.1265 µM)	relative viability ([3]; first compound 0.4 µM)	relative viability ([3]; first compound 1.265 µM)	relative viability ([3]; first compound 4 µM)	relative viability ([4]; first compound 1 µM)	relative viability ([4]; first compound 3.162 µM)	relative viability ([4]; first compound 10 µM)	relative viability ([4]; first compound 31.62 µM)	relative viability ([4]; first compound 100 µM)
EKVX	0.692	0.398	–	0.343	0.413	0.846	0.816	–	0.593	0.772	0.957	0.759	0.85	0.898	0.664	1.27	1.05	–	0.88	1.06
EPLC-272H	0.375	–	0.326	0.324	0.344	0.171	–	0.183	0.192	0.24	0.967	0.878	0.836	1.01	0.953	1	–	–	1.07	0.836
NCI-H2126	0.363	0.342	0.386	0.377	0.318	0.988	0.963	0.673	0.968	0.691	0.749	0.786	0.781	0.759	0.723	1.19	1.02	0.953	1.11	0.809
LXF-289	0.641	0.66	0.573	0.395	0.233	1.07	1.16	1.11	0.699	0.281	1.12	0.983	1	1.02	0.899	1.04	0.993	0.94	0.748	0.301
NCI-H2405	0.524	0.533	0.478	0.509	0.435	0.798	0.792	0.545	0.875	0.688	0.976	0.766	0.769	0.789	0.705	1.03	0.801	0.778	0.969	0.565
NCI-H1755	0.496	0.455	0.45	0.474	0.415	0.411	0.505	0.384	0.611	0.36	0.973	0.852	0.983	0.968	0.869	1.03	0.952	0.739	1.08	0.415
HCC-78	0.577	0.465	0.34	0.472	0.449	0.716	0.743	–	0.648	0.468	0.323	0.279	0.301	0.321	0.246	0.497	0.512	0.407	0.42	0.355
LOU-NH91	0.54	0.524	0.518	0.552	0.47	0.522	0.751	0.568	0.743	0.627	0.811	0.796	0.753	0.735	0.605	0.485	0.464	0.51	0.441	0.492
NCI-H3122	0.204	0.185	0.173	0.195	0.19	1.05	1.12	0.846	1.04	1.02	0.721	0.643	0.724	0.852	0.749	1.04	0.991	1	1.05	1.08
HCC-827	0.555	0.551	0.424	0.485	0.339	0.221	0.206	0.197	0.197	0.179	0.991	0.959	0.916	0.965	0.907	1.12	1.06	0.875	0.773	0.506
NCI-H1975	0.818	0.596	0.291	0.317	0.259	0.747	0.748	0.549	0.499	0.345	0.646	0.572	0.518	0.55	0.34	0.403	0.338	0.288	0.267	0.233
NCI-H1651	0.525	0.491	0.507	0.557	0.352	0.506	0.486	0.445	0.466	0.294	1.04	0.939	1	0.942	0.941	0.979	0.935	0.582	0.947	0.609
NCI-H441	0.235	0.21	0.207	0.148	0.181	1.37	1.27	0.536	0.418	0.369	0.915	0.675	0.955	0.572	0.434	0.355	0.278	0.352	0.235	0.245
LCLC-103H	0.49	0.45	0.482	0.505	0.473	0.8	0.798	0.579	0.802	0.689	0.96	0.937	0.864	1.1	0.874	1.19	1.1	0.886	1.19	1.01
LCLC-97TM1	0.2	0.199	0.0967	0.102	0.111	0.127	0.216	0.142	0.134	0.13	0.254	0.218	0.219	0.276	0.188	1.41	0.627	0.473	0.253	0.217
NCI-H727	0.652	0.729	0.69	0.634	0.618	0.785	0.703	0.606	0.646	0.574	0.591	0.448	0.526	0.63	0.445	0.901	0.816	0.737	0.943	0.762
